Molecules are shown by their SMILES. ≈ marks a conversion by molar mass, not a printed value. Like-named read-outs stand apart in the source and are kept apart here.

For one series, the target named is T1, human topoIIα (Homo sapiens, UniProt P11388).
T1 construct: purchased Inspiralis
Nature of the series: topoII decatenation assay (Inspiralis). The class given is biochemical. The method, then: We measured the inhibitor activity of our new compounds against human topoIIα, using a topoII decatenation assay (Table 1).
The activity of topoIIα was measured using a decatenation assay (Inspiralis) following the manufacturer’s instructions. Compounds were dissolved in DMSO and used at a concentration ranging from 200 to 1 μM. Final DMSO concentration in the assay was ≤1%. Reaction mixtures were incubated for 30 min at 37 °C and terminated with STEB buffer (40% (w/v) sucrose, 100 mM Tris-HCl, pH 8, 1 mM EDTA, 0.5 mg/mL bromophenol blue). Reaction products were resolved by electrophoresis in 1% agarose gels containing SYBR Safe DNA stain (Invitrogen), scanned, and quantified using the ChemiDoc system (BioRad). IC50 values were obtained with GraphPad Prism software (version 5.03) using the band intensities of the dose–response gels. Values are reported as the mean ± SD of two independent experiments.

For another series, the system named is DU145 cells. Nature of the series: cell viability MTT assay, DU145. The class given is cell-based, human. The settings on record: Homo sapiens, DU-145, DU145 prostate cancer cells, mean ± SD of two experiments, read-out: DU145 antiproliferative activity IC50. The method, then: (§1) The antiproliferative activity of all compounds was evaluated in (i) DU145, an androgen-independent prostate cancer cell line; (ii) HeLa, a cervical cancer cell line; and (iii) A549, a lung adenocarcinoma cell line (Table 1). […] Undoubtedly, this preliminary cytotoxicity data will need further characterization, also in relation to the in vitro activity of these compounds.
(§2) Human cancer cell lines A549 (lung adenocarcinoma, ATCC CCL-185), DU-145 (androgen-independent prostate cancer, ATCC HTB-81), and HeLa (cervical carcinoma, ATCC CCL-2) were obtained from ATCC. Cells were routinely grown in minimal essential medium containing Eagle’s salts and L-glutamine supplemented with 10% heat-inactivated FBS in a humidified atmosphere of 5% CO2 at 37 °C. To assess the antiproliferative activity of the compounds, cells were seeded at a density of 2500 cells/well (HeLa) or 5000 cells/well (A549, DU-145) in 96-well plates, and cell viability was measured using the MTT assay as described previously.[39] Values are reported as the mean ± SD of two independent experiments.

A further series has as its system HeLa cells. The series can be described thus: cell viability MTT assay, HeLa. The class given is cell-based, human. As to conditions: Homo sapiens, HeLa, HeLa cervical cancer cells, mean ± SD of two experiments, read-out: HeLa antiproliferative activity IC50. The method, then: as §1, §2
A general note: Formazan colour is commonly taken as a measure of viable cells.

In another series the test system is A549 cells. The series can be described thus: cell viability MTT assay, A549. The class given is cell-based, human. As to conditions: Homo sapiens, A549, A549 lung adenocarcinoma cells, mean ± SD of two experiments, read-out: A549 antiproliferative activity IC50. The method, then:
as §1, §2

Series [1] can be described thus: aqueous kinetic solubility. The class given is physicochemical. As to conditions: PBS, pH 7.4, PBS pH 7.4, target 250 µM, 2.5% DMSO, 25°C. The method, then: 1. In vitro m etabolic stabili ty
In vitro microsomial stability. 10mM DMSO stock solution of test compound was pre-incubated at 37 °C for 15min with mouse liver microsomes added 0.1M Tris-HCl buffer (pH 7.4). The final concentration was 4.6µM. After pre -incubation, the co-factors (NADPH, G6P, G6PDH and MgCl2 pre-dissolved in 0.1M Tris-HCl) were added to the incubation mixture and the incubation was continued at 37 °C for 1h. At each time point (0, 5, 15, 30, 60min), 30µL of incubation mixture was diluted with 200µL cold CH 3CN spiked with 200n M of internal standard, followed by centrifugation at 3500g for 15min. The supernatant was further diluted with H2O (1:1) for analysis. The concentration of test compound was quantified by LC/MS-MS on a Waters ACQUITY UPLC/M S TQD system consisting of a TQD (Triple Quadrupole Detector) Mass Spectrometer equipped with an Electrospray Ionization interface. The analyses were run on an ACQUITY UPLC BEH C18 (50x2.1mmID, particle size 1.7µm) with a VanGuard BEH C18 pre -column (5x2.1mmID, particle size 1.7µm) at 40°C, using 0.1% HCOOH in H 2O (A) and 0.1% HCOOH in CH 3CN (B) as mobile phase. Electrospray ionization (ESI) was app lied in positive mode . The percentage of test compound remaining at each time point relative to t=0 was calculated. The half -lives (t½) were determined by an one-phase decay equation using a non -linear regression of compound concentration versus time.
In vitro Plasma Stability. 10mM DMSO stock solution of test compound was diluted 50 -fold with DMSO-H2O (1:1) and incubated at 37 °C for 2 h with mouse plasma added 5% DMSO (pre-heated at 37 °C for 10 min). The final concentration was 2µM. At each time point (0, 5, 15, 30, 60, 120min), 50 µL of incubation mixture was diluted with 200µL cold CH3CN spiked with 200nM of internal standard, followed by centrifugation at 3500g for 20min. The supernatant was further diluted with H2O (1:1) for analysis. The concentration of test compound was quantified by LC/MS-MS on a Waters ACQUITY UPLC/MS TQD system consisting of a TQD (Triple Quadrupole Detector) Mass Spectrometer equipped with an Electrospray Ionization interface. The analyses were run on an ACQUITY UPLC BEH C18 (50x2.1mmID, particle size 1.7µm) with a VanGuard BEH C18 pre - column (5x2.1mmID, particle size 1.7µm) at 40°C, using 0.1% HCOOH in H2O (A) and 0.1% HCOOH in CH3CN (B) as mobile phase. Electrospray ionization (ESI) was applied in positive mode.
The response factors, calculated on the basis of the internal standard peak area, were plotted over time. When possible, response vs. time profiles were fitted with Prism (GraphPad Software, Inc., USA) to estimate compounds half-life in plasma.
2. Aqueous ki netic solu bili ty
The aqueous kinetic solubility was determined from a 10mM DMSO stock solution of test compound in Phosphate Buffered Saline (PBS) at pH 7.4. The study was performed by incubation of an aliquot of 10mM DMSO stock solution in PBS (pH 7.4) at a target concentration of 250µM resulting in a final concentration of 2.5% DMSO. The incubation was carried out under shaking at 25°C for 24h followed by centrifugation at 21.100g for 30min. The supernatant was analyzed by UPLC/MS for the quantification of dissolved compound by UV at a specific wavelength (215nm).
The analyses were performed on a Waters ACQUITY UPLC/MS SQD system consisting of a SQD (Single Quadrupole Detector) Mass Spectrometer equipped with Electrospray Ionization interface.
The analyses were run on an ACQUITY UPLC BEH C18 column (50x2.1mmID, particle size 1.7µm) with a VanGuard BEH C18 pre-column (5x2.1mmID, particle size 1.7µm), using 10mM NH4OAc in H2O at pH 5 adjusted with AcOH (A) and 10mM NH4OAc in MeCN-H2O (95:5) at pH 5 (B) as […]

[2] abbreviates: human topoIIα decatenation assay, mean ± SD of two independent experiments, read-out: IC50.
Setting [3] is: topoIIα decatenation IC50 versus ARN16267.

T1 sequence (P11388 whole entry): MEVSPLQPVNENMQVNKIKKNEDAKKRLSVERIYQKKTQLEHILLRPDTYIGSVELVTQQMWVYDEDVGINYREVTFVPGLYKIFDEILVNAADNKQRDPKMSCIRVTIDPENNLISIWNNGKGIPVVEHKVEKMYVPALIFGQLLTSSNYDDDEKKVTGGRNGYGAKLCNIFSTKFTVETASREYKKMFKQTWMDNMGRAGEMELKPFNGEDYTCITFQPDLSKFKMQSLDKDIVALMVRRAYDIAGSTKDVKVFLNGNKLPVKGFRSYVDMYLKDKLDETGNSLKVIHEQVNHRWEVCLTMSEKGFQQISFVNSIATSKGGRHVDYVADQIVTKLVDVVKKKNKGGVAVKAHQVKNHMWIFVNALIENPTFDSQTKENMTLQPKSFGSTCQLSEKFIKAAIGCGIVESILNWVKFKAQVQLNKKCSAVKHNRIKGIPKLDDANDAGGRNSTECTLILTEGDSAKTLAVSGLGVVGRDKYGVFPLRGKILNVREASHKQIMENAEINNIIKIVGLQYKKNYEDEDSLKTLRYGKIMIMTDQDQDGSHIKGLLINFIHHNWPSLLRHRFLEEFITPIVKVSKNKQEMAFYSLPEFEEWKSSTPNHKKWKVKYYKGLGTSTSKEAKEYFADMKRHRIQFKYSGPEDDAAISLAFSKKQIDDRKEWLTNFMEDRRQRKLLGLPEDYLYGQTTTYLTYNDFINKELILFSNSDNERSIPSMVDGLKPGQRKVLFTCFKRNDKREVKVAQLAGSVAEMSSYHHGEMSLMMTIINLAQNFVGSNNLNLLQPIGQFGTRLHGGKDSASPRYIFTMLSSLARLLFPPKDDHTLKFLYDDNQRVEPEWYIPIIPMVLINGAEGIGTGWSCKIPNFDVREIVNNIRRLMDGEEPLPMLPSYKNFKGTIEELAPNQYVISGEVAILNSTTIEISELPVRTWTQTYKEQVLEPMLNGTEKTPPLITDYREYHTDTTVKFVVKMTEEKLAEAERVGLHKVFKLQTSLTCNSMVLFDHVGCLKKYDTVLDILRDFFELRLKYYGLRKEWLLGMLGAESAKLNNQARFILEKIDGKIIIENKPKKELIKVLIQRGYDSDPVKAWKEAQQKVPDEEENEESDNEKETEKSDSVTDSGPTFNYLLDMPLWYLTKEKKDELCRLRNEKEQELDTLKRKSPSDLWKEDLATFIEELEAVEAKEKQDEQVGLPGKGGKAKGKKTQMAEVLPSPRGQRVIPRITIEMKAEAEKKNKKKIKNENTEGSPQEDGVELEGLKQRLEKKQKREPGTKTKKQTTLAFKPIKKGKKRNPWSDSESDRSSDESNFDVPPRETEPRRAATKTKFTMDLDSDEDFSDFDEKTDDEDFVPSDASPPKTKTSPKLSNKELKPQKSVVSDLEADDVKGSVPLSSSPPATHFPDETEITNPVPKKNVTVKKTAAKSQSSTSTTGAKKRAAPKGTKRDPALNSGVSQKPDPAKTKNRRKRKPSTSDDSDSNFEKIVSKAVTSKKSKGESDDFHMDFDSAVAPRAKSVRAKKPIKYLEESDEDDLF

A word on the IC50: it is the point on the concentration scale where inhibition reaches its midpoint. On to `CCOc1cccc(NC(=O)c2c(O)n(-c3ccccc3)c(=S)n(-c3ccccc3)c2=O)c1` [3a, N-(3-Ethoxyphenyl)-6-hydroxy-4-oxo-1,3-diphenyl-2-thioxo-1,2,3,4-tetrahydropyrimidine-5-carboxamide], for which the IC50 amounted to 12.4 ± 3.7 µM at human topoIIα (setting [2]), 5.7 ± 1.4 µM in the series on DU145 cells, 5.2 ± 0.9 µM in the series on HeLa cells and 3.6 ± 0.4 µM in the series on A549 cells.

For orientation: kinetic solubility means the concentration staying in solution when a stock, usually in DMSO, is diluted into the medium. As to `CC(C)Oc1cccc(NC(=O)c2c(O)n(-c3ccccc3)c(=S)n(-c3ccccc3)c2=O)c1` [3b, 6-Hydroxy-N-(3-isopropoxyphenyl)-4-oxo-1,3-diphenyl-2-thioxo-1,2,3,4-tetrahydropyrimidine-5-carboxamide], the IC50 was found to be 9.7 ± 2.6 µM at human topoIIα (setting [2]), 5.5 ± 0.1 µM in the series on DU145 cells, 4.2 ± 0.3 µM with HeLa cells and 3 ± 0.3 µM in the series on A549 cells. Besides, in series [1], the solubility (kinetic) at 24 h came out at 34 µM (≈ 16.1 µg/mL).

As to `N#Cc1cccc(NC(=O)c2c(O)n(-c3ccccc3)c(=S)n(-c3ccccc3)c2=O)c1` [3c, N-(3-Cyanophenyl)-6-hydroxy-4-oxo-1,3-diphenyl-2-thioxo-1,2,3,4-tetrahydropyrimidine-5-carboxamide], the IC50 at human topoIIα (setting [2]) stood at 14.4 ± 3.8 µM; in the series with DU145 cells, 14.4 ± 4.1 µM; with HeLa cells it was 12.4 ± 1.3 µM; in the series with A549 cells, 16.9 ± 0.3 µM.

For `O=C(Nc1cccc([N+](=O)[O-])c1)c1c(O)n(-c2ccccc2)c(=S)n(-c2ccccc2)c1=O` [3d, 6-Hydroxy-N-(3-nitrophenyl)-4-oxo-1,3-diphenyl-2-thioxo-1,2,3,4-tetrahydropyrimidine-5-carboxamide], the IC50 at human topoIIα (setting [2]) stood at 10.2 ± 4.6 µM; in the series on DU145 cells it was 6.9 ± 0.3 µM; in the series on HeLa cells, 11.9 ± 2.6 µM; in the series on A549 cells, 18.5 ± 3.1 µM.

Consider `O=C(Nc1cccc(F)c1)c1c(O)n(-c2ccccc2)c(=S)n(-c2ccccc2)c1=O` [3e, N-(3-Fluorophenyl)-6-hydroxy-4-oxo-1,3-diphenyl-2-thioxo-1,2,3,4-tetrahydropyrimidine-5-carboxamide], for which the IC50 was 15.1 ± 4.2 µM on human topoIIα (setting [2]), 5.6 ± 0.6 µM in the series with DU145 cells, 5.6 ± 0.5 µM with HeLa cells and 4.1 ± 0.2 µM in the series with A549 cells.

As for `COc1cc(NC(=O)c2c(O)n(-c3ccccc3)c(=S)n(-c3ccccc3)c2=O)ccc1F` [3j], the IC50 on human topoIIα (setting [2]) came out at 22.5 ± 5.8 µM; with DU145 cells, 7.8 ± 0.6 µM; in the series on HeLa cells, 5.3 ± 1 µM; with A549 cells, 4.6 ± 0.1 µM.

For `COc1cccc(CNC(=O)c2c(O)n(-c3ccccc3)c(=S)n(-c3ccccc3)c2=O)c1` [5d, 6-Hydroxy-N-(3-methoxybenzyl)-4-oxo-1,3-diphenyl-2-thioxo-1,2,3,4-tetrahydropyrimidine-5-carboxamide], the IC50 on human topoIIα (setting [2]) turned out to be 22.5 ± 7.2 µM; in the series with DU145 cells, 7.7 ± 0.1 µM; in the series on HeLa cells, 6.1 ± 1.1 µM; in the series with A549 cells, 4.8 ± 0.4 µM. Besides, the “fold drop in activity compared to ARN16267” value at human topoIIα (setting [3]) is on record as 1.4 fold.

Take `COc1cccc(/C=C/CNC(=O)c2c(O)n(-c3ccccc3)c(=S)n(-c3ccccc3)c2=O)c1` [5f, (E)-6-Hydroxy-N-(3-(3-methoxyphenyl)allyl)-4-oxo-1,3-diphenyl-2-thioxo-1,2,3,4-tetrahydropyrimidine-5-carboxamide]: the IC50 on human topoIIα (setting [2]) is 8.3 ± 2.3 µM; in the series on DU145 cells it was 5 ± 2.9 µM; with HeLa cells, 5.5 ± 1.1 µM; with A549 cells, 4.4 ± 0.6 µM. Besides, the “fold increased activity compared to ARN16267” value on human topoIIα (setting [3]) is 2 fold.

For the compound `COc1cc(CNC(=O)c2c(O)n(-c3ccccc3)c(=S)n(-c3ccccc3)c2=O)cc(OC)c1O` [compound 6, 6-Hydroxy-N-(4-hydroxy-3,5-dimethoxybenzyl)-4-oxo-1,3-diphenyl-2-thioxo-1,2,3,4-tetrahydropyrimidine-5-carboxamide], the IC50 is > 100 µM against human topoIIα; 108 ± 10.1 µM on human topoIIα (setting [2]); 8.8 ± 0.3 µM in the series on DU145 cells; 19.1 ± 4.8 µM in the series with HeLa cells; 14.7 ± 0.3 µM in the series with A549 cells. The “fold drop in activity compared to ARN16267” value at human topoIIα (setting [3]) is on record as 7 fold.

Take `COc1cc(CCNC(=O)c2c(O)n(-c3ccccc3)c(=S)n(-c3ccccc3)c2=O)cc(OC)c1O` [compound 7, 6-Hydroxy-N-(4-hydroxy-3,5-dimethoxyphenethyl)-4-oxo-1,3-diphenyl-2-thioxo-1,2,3,4-tetrahydropyrimidine-5-carboxamide]: the IC50 on human topoIIα (setting [2]) amounted to 74.4 ± 13.6 µM; in the series with DU145 cells, 13.9 ± 7.6 µM; in the series on HeLa cells, 13.3 ± 1.7 µM; in the series with A549 cells it was 14.8 ± 1.4 µM.

As for `COc1cc(/C=C/CNC(=O)c2c(O)n(-c3ccccc3)c(=S)n(-c3ccccc3)c2=O)cc(OC)c1O` [compound 8, (E)-6-Hydroxy-N-(3-(4-hydroxy-3,5-dimethoxyphenyl)allyl)-4-oxo-1,3-diphenyl-2-thioxo-1,2,3,4-tetrahydropyrimidine-5-carboxamide], the IC50 was 28 ± 4.4 µM at human topoIIα (setting [2]), 9.8 ± 2.1 µM with DU145 cells, 9.3 ± 0.2 µM in the series on HeLa cells and 9.5 ± 1.5 µM with A549 cells.

Source of the values: PMC7997578, “Design, Synthesis, Dynamic Docking, Biochemical Characterization, and in Vivo Pharmacokinetics Studies of Novel Topoisomerase II Poisons with Promising Antiproliferative Activity” (Journal of Medicinal Chemistry, 2020).
